Here are results for 18 compounds from US10287301B2 (Achillion Pharmaceuticals, Inc., priority 2015, dated 2019).

Where only a bound is given, the exact number is not on record here.

For one assay, the target named is Human Factor D (Homo sapiens (Human), UniProt P00746). Briefly: Human Factor D Assay. The assay is classed as biochemical.
Chain of Human Factor D (P00746 26-253): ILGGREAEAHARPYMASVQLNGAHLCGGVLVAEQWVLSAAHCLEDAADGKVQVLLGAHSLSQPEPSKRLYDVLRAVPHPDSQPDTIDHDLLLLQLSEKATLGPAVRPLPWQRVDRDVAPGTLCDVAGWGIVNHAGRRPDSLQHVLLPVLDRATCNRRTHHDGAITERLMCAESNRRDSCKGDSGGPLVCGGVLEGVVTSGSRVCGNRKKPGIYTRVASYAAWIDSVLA
Conditions: not given
Summed up: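 Thioesterase activity monitored with Z-L-Lys-SBzl plus Ellman's reagent (DTNB), each 100 μM final, after 5 min room-temperature compound preincubation of 80 nM human serum Factor D in pH 7.5 Tris (50 mM)/1M NaCl.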
By IC50 is commonly meant the concentration needed to halve the response being measured. `Cc1ncc(-c2ccc3c(c2)c(C(C)O)nn3CC(=O)N2C[C@H](F)C[C@H]2C(=O)Nc2cccc(Br)n2)cn1` (stereo partly drawn) [Compound 360, (2S,4R)-N-(6-bromopyridin-2-yl)-4-fluoro-1-(2-(3-(1-hydroxyethyl)-5-(2-methylpyrimidin-5-yl)-1H-indazol-1-yl)acetyl)pyrrolidine-2-carboxamide] registered an IC50 of 1 to 10 µM.

The same assay, now with this note: Table 3; Human Factor D 80 nM, substrate Z-L-Lys-SBzl; read-out: IC50 (Stars).
Take `CC(=O)c1nn(CC(=O)N2C[C@H](F)C[C@H]2C(=O)Nc2cccc(-c3cc(S(N)(=O)=O)ccc3Cl)c2F)c2ccc(-c3cnc(C)nc3)cc12` [Compound 341, (2S,4R)-1-(2-(3-Acetyl-5-(2-methylpyrimidin-5-yl)-1H-indazol-1-yl)acetyl)-N-(2′-chloro-2-fluoro-5′-sulfamoyl-[1,1′-biphenyl]-3-yl)-4-fluoropyrrolidine-2-carboxamide]: the IC50 is less than 1 µM.
The same measure, in the same setting: the figure for `CNS(=O)(=O)c1ccc(Cl)c(-c2cccc(NC(=O)[C@@H]3C[C@@H](F)CN3C(=O)Cn3nc(C(C)=O)c4cc(-c5cnc(C)nc5)ccc43)c2F)c1` [Compound 342, (2S,4R)-1-(2-(3-Acetyl-5-(2-methylpyrimidin-5-yl)-1H-indazol-1-yl)acetyl)-N-(2′-chloro-2-fluoro-5′-(N-methylsulfamoyl)-[1,1′-biphenyl]-3-yl)-4-fluoropyrrolidine-2-carboxamide] is less than 1 µM; for `CC(=O)c1nn(CC(=O)N2C[C@H](F)C[C@H]2C(=O)Nc2cccc(-c3cc(S(=O)(=O)N(C)C)ccc3Cl)c2F)c2ccc(-c3cnc(C)nc3)cc12` [Compound 343, (2S,4R)-1-(2-(3-Acetyl-5-(2-methylpyrimidin-5-yl)-1H-indazol-1-yl)acetyl)-N-(2′-chloro-5′-(N,N-dimethylsulfamoyl)-2-fluoro-[1,1′-biphenyl]-3-yl)-4-fluoropyrrolidine-2-carboxamide] it is less than 1 µM; for `CC(=O)c1nn(CC(=O)N2C[C@H](F)C[C@H]2C(=O)Nc2cccc(OC(F)(F)F)n2)c2ccc(-c3cnc(C)nc3)cc12` [Compound 344, (2S,4R)-1-(2-(3-Acetyl-5-(2-methylpyrimidin-5-yl)-1H-indazol-1-yl)acetyl)-4-fluoro-N-(6-(trifluoromethoxy)pyridin-2-yl)pyrrolidine-2-carboxamide] it is less than 1 µM.
On the same count and under the same terms, the result for `CC(=O)c1nn(CC(=O)N2C[C@H](F)C[C@H]2C(=O)Nc2cc(C)cc(Br)n2)c2ccc(-c3cnc(C)nc3)cc12` [Compound 345, (2S,4R)-1-(2-(3-Acetyl-5-(2-methylpyrimidin-5-yl)-1H-indazol-1-yl)acetyl)-N-(6-bromo-4-methylpyridin-2-yl)-4-fluoropyrrolidine-2-carboxamide] reads less than 1 µM.
As to `CC(=O)c1nn(CC(=O)N2C[C@H](F)[C@@H](O)[C@H]2C(=O)Nc2cccc(Br)n2)c2ccc(-c3cnc(C)nc3)cc12` [Compound 346, (2S,3S,4S)-1-(2-(3-Acetyl-5-(2-methylpyrimidin-5-yl)-1H-indazol-1-yl)acetyl)-N-(6-bromopyridin-2-yl)-4-fluoro-3-hydroxypyrrolidine-2-carboxamide], the IC50 was less than 1 µM.
The same measure, in the same setting: the figure for `CC(=O)c1nn(CC(=O)N2C[C@H](F)C[C@H]2C(=O)Nc2cnc(C)c(Br)n2)c2ccc(-c3cnc(C)nc3)cc12` [Compound 349, (2S,4R)-1-(2-(3-Acetyl-5-(2-methylpyrimidin-5-yl)-1H-indazol-1-yl)acetyl)-N-(6-bromo-5-methylpyrazin-2-yl)-4-fluoropyrrolidine-2-carboxamide] is less than 1 µM; for `CC(=O)c1nn(CC(=O)N2[C@@H]3C[C@@H]3C[C@H]2C(=O)Nc2cncc(Br)n2)c2ccc(-c3cnc(C)nc3)cc12` [Compound 350, (1R,3S,5R)-2-(2-(3-Acetyl-5-(2-methylpyrimidin-5-yl)-1H-indazol-1-yl)acetyl)-N-(6-bromopyrazin-2-yl)-2-azabicyclo[3.1.0]hexane-3-carboxamide] it is less than 1 µM.
Consider `COc1cc(Br)nc(NC(=O)[C@@H]2C[C@@H](F)CN2C(=O)Cn2nc(C(C)=O)c3cc(-c4cnc(C)nc4)ccc32)c1` [Compound 351], for which the concentration for half-maximal inhibition (IC50) is less than 1 µM.
On to `CC(=O)c1nn(CC(=O)N2[C@@H]3C[C@@H]3C[C@H]2C(=O)Nc2cncc(Br)n2)c2ccc(-c3cnc(N)nc3)cc12` [Compound 352, (1R,3S,5R)-2-(2-(3-Acetyl-5-(2-aminopyrimidin-5-yl)-1H-indazol-1-yl)acetyl)-N-(6-bromopyrazin-2-yl)-2-azabicyclo[3.1.0]hexane-3-carboxamide], for which the IC50 was less than 1 µM.
The same measure, in the same setting: the result for `CC(=O)c1nn(CC(=O)N2C[C@H](F)C[C@H]2C(=O)Nc2cncc(Br)n2)c2ccc(-c3cnc(N)nc3)cc12` [Compound 353, (2S,4R)-1-(2-(3-Acetyl-5-(2-aminopyrimidin-5-yl)-1H-indazol-1-yl)acetyl)-N-(6-bromopyrazin-2-yl)-4-fluoropyrrolidine-2-carboxamide] reads less than 1 µM; that for `CC(=O)c1nn(CC(=O)N2C[C@H](F)C[C@H]2C(=O)Nc2cncc(Br)n2)c2ccc(-c3cnc(C4CC4)nc3)cc12` [Compound 354, (2S,4R)-1-(2-(3-Acetyl-5-(2-cyclopropylpyrimidin-5-yl)-1H-indazol-1-yl)acetyl)-N-(6-bromopyrazin-2-yl)-4-fluoropyrrolidine-2-carboxamide], less than 1 µM; that for `CC(=O)c1nn(CC(=O)N2C[C@H](F)C[C@H]2C(=O)Nc2nc(CC(F)(F)F)cs2)c2ccc(-c3cnc(C)nc3)cc12` [Compound 355, (2S,4R)-1-(2-(3-Acetyl-5-(2-methylpyrimidin-5-yl)-1H-indazol-1-yl)acetyl)-4-fluoro-N-(4-(2,2,2-trifluoroethyl)thiazol-2-yl)pyrrolidine-2-carboxamide], less than 1 µM.
The same measure, in the same setting: the result for `CC(=O)c1nn(CC(=O)N2[C@@H]3C[C@@H]3C[C@H]2C(=O)Nc2cncc(Br)n2)c2ccc(-c3cnc(C4CC4)nc3)cc12` [Compound 356, (1R,3S,5R)-2-(2-(3-acetyl-5-(2-cyclopropylpyrimidin-5-yl)-1H-indazol-1-yl)acetyl)-N-(6-bromopyrazin-2-yl)-2-azabicyclo[3.1.0] hexane-3-carboxamide] reads less than 1 µM; that for `CC(=O)c1nn(CC(=O)N2C[C@H](F)C[C@H]2C(=O)Nc2ccn(CC(F)(F)F)n2)c2ccc(-c3cnc(C)nc3)cc12` [Compound 357, (2S,4R)-1-(2-(3-Acetyl-5-(2-methylpyrimidin-5-yl)-1H-indazol-1-yl)acetyl)-4-fluoro-N-(1-(2,2,2-trifluoroethyl)-1H-pyrazol-3-yl)pyrrolidine-2-carboxamide], less than 1 µM.
With `CC(=O)c1nn(CC(=O)N2C[C@H](F)C[C@H]2C(=O)Nc2cccc(Br)c2Cl)c2ccc(-c3cnc(C)nc3)cc12` [Compound 358, (2S,4R)-1-(2-(3-Acetyl-5-(2-methylpyrimidin-5-yl)-1H-indazol-1-yl)acetyl)-N-(3-bromo-2-chlorophenyl)-4-fluoropyrrolidine-2-carboxamide], the IC50 was less than 1 µM.
On the same count and under the same terms, the figure for `CC(=O)c1nn(CC(=O)N2C[C@H](F)C[C@H]2C(=O)Nc2cc(Cl)cc(Br)n2)c2ccc(-c3cnc(C)nc3)cc12` [Compound 359, (2S,4R)-1-(2-(3-Acetyl-5-(2-methylpyrimidin-5-yl)-1H-indazol-1-yl)acetyl)-N-(6-bromo-4-chloropyridin-2-yl)-4-fluoropyrrolidine-2-carboxamide] is less than 1 µM.
